Each structure is given as a SMILES string.

In this test the target is T1, PDE5A1 (human PDE5 from platelets) (Homo sapiens, UniProt O76074).
T1 construct: from tissue; host or cells: platelets from fresh blood of human donors (10,000 g supernatant of sonified platelets)
Description: Inhibition of type 5 phosphodiesterase (PDE5) activity, modified SPA test. It is filed as biochemical. Particulars: PDE5-containing human platelet lysate, 0.5 μM cGMP, value classes, read-out: PDE5A1 inhibitory values [measured as −logIC50 (mol/l)] (converted). The gist of the method: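 Enzyme source: human platelet lysate (10,000 g supernatant), with 1 μM motapizone and 10 nM PDE2 inhibitor present. SPA format in 20 mM Tris pH 7.4, 5 mM Mg2+, 0.5 μM cGMP with [3H]cGMP tracer; 5 min preincubation at 37 °C, 15 min reaction, stopped with IBMX-containing beads. IC50 by non-linear regression.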
In the case of `Cc1[nH]c2c(-c3ccc(F)cc3OCC3CC3)ccnc2c1C(=O)NC1CCN(C(=O)[C@H](C)O)CC1` [Example F07, 7-[2-(Cyclopropylmethoxy)-4-fluorophenyl]-N-{1-[(2S)-2-hydroxypropanoyl]piperidin-4-yl}-2-methyl-1H-pyrrolo[3,2-b]pyridine-3-carboxamide], the IC50 is 1 to 10 nM. In the case of `Cc1[nH]c2c(-c3ccc(F)cc3OCC3CC3)ccnc2c1C(=O)N[C@H]1CC[C@H](NC(=O)CO)CC1` [Example F08, 7-[2-(Cyclopropylmethoxy)-4-fluorophenyl]-N-{trans-4-[(hydroxyacetyl)amino]cyclohexyl}-2-methyl-1H-pyrrolo[3,2-b]pyridine-3-carboxamide] it was 1 to 10 nM; in that of `Cc1[nH]c2c(-c3ccc(F)cc3OCC3CC3)ccnc2c1C(=O)N[C@H]1CC[C@H](NC(=O)[C@H](C)O)CC1` [Example F09, 7-[2-(Cyclopropylmethoxy)-4-fluorophenyl]-N-(trans-4-{[(2S)-2-hydroxypropanoyl]amino}cyclohexyl)-2-methyl-1H-pyrrolo[3,2-b]pyridine-3-carboxamide], below 1 nM. In the case of `Cc1[nH]c2c(-c3ccc(F)cc3OCC3CC3)ccnc2c1C(=O)N[C@H]1CC[C@@H](NC(=O)CO)CC1` [Example F10, 7-[2-(Cyclopropylmethoxy)-4-fluorophenyl]-N-{cis-4-[(hydroxyacetyl)amino]cyclohexyl}-2-methyl-1H-pyrrolo[3,2-b]pyridine-3-carboxamide] it was 1 to 10 nM; in that of `Cc1[nH]c2c(-c3ccc(F)cc3OCC3CC3)ccnc2c1C(=O)N[C@H]1CC[C@@H](NC(=O)[C@H](C)O)CC1` [Example F11, 7-[2-(Cyclopropylmethoxy)-4-fluorophenyl]-N-(cis-4-{[(2S)-2-hydroxypropanoyl]amino}cyclohexyl)-2-methyl-1H-pyrrolo[3,2-b]pyridine-3-carboxamide], 1 to 10 nM; in that of `Cc1[nH]c2c(-c3cc(F)ccc3OCC3CC3)ccnc2c1C(=O)NC1CCN(C(=O)CO)CC1` [Example F12, 7-[2-(Cyclopropylmethoxy)-5-fluorophenyl]-N-[1-(hydroxyacetyl)piperidin-4-yl]-2-methyl-1H-pyrrolo[3,2-b]pyridine-3-carboxamide], 1 to 10 nM. To `Cc1[nH]c2c(-c3cc(F)ccc3OCC3CC3)ccnc2c1C(=O)NC1CCN(C(=O)[C@H](C)O)CC1` [Example F13, 7-[2-(Cyclopropylmethoxy)-5-fluorophenyl]-N-{1-[(2S)-2-hydroxypropanoyl]piperidin-4-yl}-2-methyl-1H-pyrrolo[3,2-b]pyridine-3-carboxamide] belongs 1 to 10 nM. For `Cc1[nH]c2c(-c3cc(F)ccc3OCC3CC3)ccnc2c1C(=O)N[C@H]1CC[C@H](NC(=O)CO)CC1` [Example F14, 7-[2-(Cyclopropylmethoxy)-5-fluorophenyl]-N-{trans-4-[(hydroxyacetyl)amino]cyclohexyl}-2-methyl-1H-pyrrolo[3,2-b]pyridine-3-carboxamide], the IC50 was below 1 nM. To `Cc1[nH]c2c(-c3cc(F)ccc3OCC3CC3)ccnc2c1C(=O)N[C@H]1CC[C@H](NC(=O)[C@H](C)O)CC1` [Example F15, 7-[2-(Cyclopropylmethoxy)-5-fluorophenyl]-N-(trans-4-{[(2S)-2-hydroxypropanoyl]amino}cyclohexyl)-2-methyl-1H-pyrrolo[3,2-b]pyridine-3-carboxamide] belongs below 1 nM; to `Cc1[nH]c2c(-c3cc(F)ccc3OCC3CC3)ccnc2c1C(=O)N[C@H]1CC[C@@H](NC(=O)CO)CC1` [Example F16, 7-[2-(Cyclopropylmethoxy)-5-fluorophenyl]-N-{cis-4-[(hydroxyacetyl)amino]cyclohexyl}-2-methyl-1H-pyrrolo[3,2-b]pyridine-3-carboxamide], 1 to 10 nM; to `Cc1[nH]c2c(-c3cc(F)ccc3OCC3CC3)ccnc2c1C(=O)N[C@H]1CC[C@@H](NC(=O)[C@H](C)O)CC1` [Example F17, 7-[2-(Cyclopropylmethoxy)-5-fluorophenyl]-N-(cis-4-{[abs.(2S)-2-hydroxypropanoyl]amino}cyclohexyl)-2-methyl-1H-pyrrolo[3,2-b]pyridine-3-carboxamide], 1 to 10 nM. In the case of `COc1ccc(-c2ccnc3c(C(=O)NC4CCN(C(=O)CO)CC4)c(C)[nH]c23)c(OCC2CC2)c1` [Example F20, 7-[2-(Cyclopropylmethoxy)-4-methoxyphenyl]-N-[1-(hydroxyacetyl)piperidin-4-yl]-2-methyl-1H-pyrrolo[3,2-b]pyridine-3-carboxamide] it was below 1 nM. As to `COc1ccc(-c2ccnc3c(C(=O)NC4CCN(C(=O)[C@H](C)O)CC4)c(C)[nH]c23)c(OCC2CC2)c1` [Example F21, 7-[2-(Cyclopropylmethoxy)-4-methoxyphenyl]-N-{1-[(2S)-2-hydroxypropanoyl]piperidin-4-yl}-2-methyl-1H-pyrrolo[3,2-b]pyridine-3-carboxamide], the IC50 is below 1 nM. To `COc1ccc(-c2ccnc3c(C(=O)N[C@H]4CC[C@H](NC(=O)CO)CC4)c(C)[nH]c23)c(OCC2CC2)c1` [Example F22, 7-[2-(Cyclopropylmethoxy)-4-methoxyphenyl]-N-{trans-4-[(hydroxyacetyl)amino]cyclohexyl}-2-methyl-1H-pyrrolo[3,2-b]pyridine-3-carboxamide] belongs below 1 nM; to `COc1ccc(-c2ccnc3c(C(=O)N[C@H]4CC[C@H](NC(=O)[C@H](C)O)CC4)c(C)[nH]c23)c(OCC2CC2)c1` [Example F23, 7-[2-(Cyclopropylmethoxy)-4-methoxyphenyl]-N-(trans-4-{[(2S)-2-hydroxypropanoyl]amino}cyclohexyl)-2-methyl-1H-pyrrolo[3,2-b]pyridine-3-carboxamide], below 1 nM. In the case of `COc1ccc(-c2ccnc3c(C(=O)N[C@H]4CC[C@@H](NC(=O)CO)CC4)c(C)[nH]c23)c(OCC2CC2)c1` [Example F24, 7-[2-(Cyclopropylmethoxy)-4-methoxyphenyl]-N-{cis-4-[(hydroxyacetyl)amino]cyclohexyl}-2-methyl-1H-pyrrolo[3,2-b]pyridine-3-carboxamide], the IC50 is below 1 nM. As to `COc1ccc(-c2ccnc3c(C(=O)N[C@H]4CC[C@@H](NC(=O)[C@H](C)O)CC4)c(C)[nH]c23)c(OCC2CC2)c1` [Example F25, 7-[2-(Cyclopropylmethoxy)-4-methoxyphenyl]-N-(cis-4-{[(2S)-2-hydroxypropanoyl]amino}cyclohexyl)-2-methyl-1H-pyrrolo[3,2-b]pyridine-3-carboxamide], the IC50 was below 1 nM. To `COc1ccc(OCC2CC2)c(-c2ccnc3c(C(=O)NC4CCN(C(=O)CO)CC4)c(C)[nH]c23)c1` [Example F26, 7-[2-(Cyclopropylmethoxy)-5-methoxyphenyl]-N-[1-(hydroxyacetyl)piperidin-4-yl]-2-methyl-1H-pyrrolo[3,2-b]pyridine-3-carboxamide] belongs 1 to 10 nM. In the case of `COc1ccc(OCC2CC2)c(-c2ccnc3c(C(=O)NC4CCN(C(=O)[C@H](C)O)CC4)c(C)[nH]c23)c1` [Example F27, 7-[2-(Cyclopropylmethoxy)-5-methoxyphenyl]-N-{1-[(2S)-2-hydroxypropanoyl]piperidin-4-yl}-2-methyl-1H-pyrrolo[3,2-b]pyridine-3-carboxamide] it was below 1 nM.
